{
  "source": "patent US9181290B2",
  "about": "“Inhibition of biofilm formation by 1,2,3,4,6-penta-O-galloyl-D-glucopyranose” (CHANG GUNG UNIVERSITY, priority 2011, dated 2015)",
  "key": {"[1]": {"tested_on": "PIA production by clinical isolates of S. aureus (SA13, SA288, SA44, SA 130)", "assay": "Quantification of PIA in four clinical isolates", "type": "cell-based, Staphylococcus aureus", "details": "12.5 μM and 25 μM, 6 hrs", "description": "The amount of PIA was determined by chemiluminescence detection using horseradish peroxidase-conjugated streptavidin (Pierce) according to a method described elsewhere (S. Schlag et al. (2007), supra). Briefly, a tested bacterial strain prepared in TSBg broth was added with β-PGG at a designated concentration and then cultured in a 9 cm petri dish for 6 hrs. The bacterial cells grown in the petri dish were collected by scraping, followed by centrifugation, and the resultant cell pellets were redissolved by addition of 3 mL of 0.5 M EDTA (pH 8.0) for every gram (wet weight) of cell pellet, followed by boiling at 100° C. for 10 min. After centrifugation at 10,000 g for 30 min, the resultant supernatant was 100-fold diluted. An 80 μL aliquot of the diluted supernatant was incubated with 20 μL of proteinase K (10 mg/mL, in dH2O) at 37° C. for 2 hrs, followed by blotting onto a PVDF membrane (Millipore) using a 96-well dot-blot apparatus. […] Thereafter, the membrane was detected by autoradiography using X-ray film, and the intensity of each spot formed on the X-ray film was quantified using a densitometer (LAS-3000, Fujifilm). The relative PIA amount produced by the tested bacterial strain was determined based on the detected intensity, with the amount of PIA from bacterial cells without PGG treatment being set as 100%. […]"}, "[2]": {"tested_on": "clinical strains SA289, SA44, SA435 and SA703", "assay": "Biofilm formation by four less sensitive clinical strains at 50 μM (data not shown)", "type": "cell-based, Staphylococcus aureus", "details": "across the four clinical strains", "description": "(§1) An overnight bacterial culture was 200-fold diluted with TSBg, and a 200 μL aliquot of the diluted culture was seeded into each well of 96-well polystyrene microtiter plates and incubated at 37° C. for a designated period of time. Cell growth was determined by measuring the absorbance at 578 nm (A578) with a microtiter plate reader (SpectraMax 340, Molecular Devices). After washing with PBS twice to remove suspended cells, the wells were stained with 0.1% (w/v) crystal violet in 10% ethanol and then treated with 30% acetic acid in dH2O, followed by detecting the absorbance at 595 nm (A595) with the microtiter plate reader to quantify the amount of biofilm formed on polystyrene surface."}, "[3]": {"tested_on": "icaA gene transcription in S. aureus SA113", "assay": "icaA expression by real-time RT-PCR", "type": "cell-based, Staphylococcus aureus", "details": "concentrations below 50 μM, 5 hr treatment, normalized to gyrB", "description": "Bacterial cells were treated with 0.5 mg/mL lysostaphin (Sigma-Aldrich) at 37° C. for 15 min, and total bacterial mRNA was isolated and purified using a TRIzol reagent (Invitrogen) according to the manufacturer's instructions, followed by quantification of icaA expression by real-time RT-PCR (LightCycler, Roche, Mannheim, Germany). The icaA mRNA was reverse-transcribed and amplified using primers A1 (5′-[…]-3′) (SEQ ID NO:1) and B1 (5′-[…]-3′) (SEQ ID NO:2) that were designed based on the sequence of the icaA gene (Gene ID:3921484). […] Amplified PCR products were detected using a Light Cycler-RNA Amplification Kit Cyber Green 1 (Roche, Mannheim, Germany), starting with a cycle of denaturation at 95° C. for 5 min, then running for 45 cycles as follows: at 95° C. for 30 sec, 62° C. for 30 sec and 72° C. for 20 sec. To monitor the specificity of RT-PCR reaction, the PCR products were analyzed by melting curve analysis.\nTo determine whether the β-PGG inhibition effected at the transcriptional level, total mRNAs were isolated from S. aureus SA113 cells after 5 hr treatment with β-PGG at various concentration (0, 3.13, 12.5 and 50 μM), and transcription of the icaA gene was analyzed by LightCycler quantitative RT-PCR."}, "Enterococcus faecalis": {"tested_on": "Enterococcus faecalis", "assay": "Anti-biofilm activity (data not shown)", "type": "cell-based"}, "[4]": {"tested_on": "S. epidermidis ATCC 35547", "assay": "Growth (A578) and biofilm (A595) in polystyrene plates", "type": "cell-based, Staphylococcus epidermidis", "details": "12.5 μM β-PGG, 6 hr", "description": "In addition to the above S. aureus strains, S. epidermidis ATCC 35547 and S. epidermidis RP62A (ATCC 35984) were also studied for comparison.\nas §1"}, "S. aureus SA113": {"tested_on": "S. aureus SA113", "assay": "Biofilm formation on β-PGG/polyaniline-coated polystyrene wells (safranin staining)", "type": "cell-based, Staphylococcus aureus", "details": "polyaniline carrier, 24 hrs", "description": "β-PGG (stock conc.: 8.89 μg/mL in DMSO) in various amounts was evenly mixed with a fixed amount of polyaniline (40 μL, 3 mg/mL in DMSO) so as to provide a 100 μL β-PGG/polyaniline mixture with a final β-PGG concentration of 0.47 μM, 0.94 μM, 1.89 μM, 3.78 μM, 4.73 μM or 5.67 μM. The resultant β-PGG/polyaniline mixture was coated on the inner surfaces of the wells of 96-well polystyrene microtiter plates in an amount of 100 μL per well. After β-PGG coating, the plates were dried in a vacuum chamber, followed by UV sterilization for 30 min. An overnight culture of S. aureus SA113 was 200-fold diluted with TSBg, and a 200 μL aliquot of the diluted culture was seeded into each well of the β-PGG-coated microtiter plates. After culturing at 37° C. for 24 hrs, the wells were washed twice with PBS, and then examined by safranin staining according to a method described earlier (Christine Heilmann et al. (1996), Infect. Immun., 64 (1):277-282), so as to quantify the amount of biofilm formed on the β-PGG-coated polystyrene surface."}},
  "data": [
    {"smiles": "O=C(OC[C@H]1O[C@@H](OC(=O)c2cc(O)c(O)c(O)c2)[C@H](OC(=O)c2cc(O)c(O)c(O)c2)[C@@H](OC(=O)c2cc(O)c(O)c(O)c2)[C@@H]1OC(=O)c1cc(O)c(O)c(O)c1)c1cc(O)c(O)c(O)c1", "note": "[β-PGG, 1,2,3,4,6-penta-O-galloyl-β-D-glucopyranose]", "values": [
      {"measurement": "PIA production by four clinical isolates", "setting": "[1]", "value": "inhibited PIA production"},
      {"measurement": "reduction of biofilm formation", "setting": "[2]", "value": "83-97%"},
      {"measurement": "transcription of icaA", "setting": "[3]", "value": "did not influence the transcription of icaA"},
      {"measurement": "anti-biofilm activity", "setting": "Enterococcus faecalis", "value": "potent to mild anti-biofilm activity"},
      {"measurement": "Growth (A578)", "setting": "[4]; 0 μM: 0.50 ± 0.01", "value": "0.42 ± 0.01"},
      {"measurement": "Biofilm (A595)", "setting": "[4]; 0 μM: 1.42 ± 0.09", "value": "0.15 ± 0.11"},
      {"measurement": "biofilm formation on coated polystyrene wells", "setting": "S. aureus SA113; coated with β-PGG at 1.9 μM or lower", "value": "slightly affected"},
      {"measurement": "decrease of the amount of biofilm on coated polystyrene wells", "setting": "S. aureus SA113; coated with β-PGG at a concentration higher than 3.8 μM", "value": "more than 90%"}
    ]}
  ]
}
